Results taken from US4156724A, “N-acylamino-alpha-arylacetamido cephalosporins and antibacterial compositions and methods containing them” (Sumitomo Chemical Company, Limited, priority 1974, dated 1979).
Converted amounts (≈) assume the structure as drawn.

Columns and labels:
Format in all cases: cell-based
[1] = test system: Escherichia coli NIHJ; test: Minimum Inhibitory Concentration, Escherichia coli NIHJ; conditions: Escherichia coli NIHJ; read-out: Minimum Inhibitory Concentration
Procedure: (§1) anti-microbial activity tests were carried out on the compounds obtained in the Examples.

[2] = test system: Serratia No. 72; test: Minimum Inhibitory Concentration, Serratia No. 72
Procedure: as §1

[3] = test system: Enterobacter aerogeneus No. 75; test: Minimum Inhibitory Concentration, Enterobacter aerogeneus No. 75; conditions: Enterobacter aerogeneus No. 75; read-out: Minimum Inhibitory Concentration
Procedure: as §1

[4] = test system: Pseudomonas aeruginosa 104; test: Minimum Inhibitory Concentration, Pseudomonas aeruginosa 104; conditions: Pseudomonas aeruginosa 104; read-out: Minimum Inhibitory Concentration
Procedure: as §1

[5] = test system: Staphylococcus aureus 209 P; test: Minimum Inhibitory Concentration, Staphylococcus aureus 209 P; conditions: Staphylococcus aureus 209 P; read-out: Minimum Inhibitory Concentration
Procedure: as §1

[6] = test system: Klebsiella pneumoniae 602; test: Minimum Inhibitory Concentration, Klebsiella pneumoniae 602; conditions: Klebsiella pneumoniae, 602, Klebsiella pneumoniae 602; read-out: Minimum Inhibitory Concentration
Procedure: as §1

[7] = test system: Proteus vulgaris HX 19; test: Minimum Inhibitory Concentration, Proteus vulgaris HX 19; conditions: HX19; Proteus vulgaris HX 19; read-out: Minimum Inhibitory Concentration
Procedure: as §1

[8] = test system: Staphylococcus aureus FS 289; test: Minimum Inhibitory Concentration, Staphylococcus aureus FS 289; conditions: FS289; Staphylococcus aureus FS 289, strain resistant to penicillin; read-out: Minimum Inhibitory Concentration
Procedure: as §1
*Staphylococcus aureus FS 289: strain resistant to penicillin

Row | MIC [1] | MIC [2] | MIC [3] | MIC [4] | MIC [5] | MIC [6] | MIC [7] | MIC [8] | Compound
1 | 6.25 µg/mL (≈ 9.53 µM) | 25 µg/mL (≈ 38.1 µM) | 12.5 µg/mL (≈ 19.1 µM) | 6.25 µg/mL (≈ 9.53 µM) | 0.39 µg/mL (≈ 0.595 µM) | 1.56 µg/mL (≈ 2.38 µM) | 0.39 µg/mL (≈ 0.595 µM) | 12.5 µg/mL (≈ 19.1 µM) | Cn1nnnc1SCC1=C(C(=O)O)N2C(=O)C(NC(=O)C(NC(=O)c3cnc4scnc4c3O)c3ccc(O)cc3)C2SC1 (centres unmarked) [Example 158]
2 | 6.25 µg/mL (≈ 9.55 µM) | 50 µg/mL (≈ 76.4 µM) | 12.5 µg/mL (≈ 19.1 µM) | 6.25 µg/mL (≈ 9.55 µM) | 0.39 µg/mL (≈ 0.596 µM) | 3.13 µg/mL (≈ 4.78 µM) | 0.78 µg/mL (≈ 1.19 µM) | 12.5 µg/mL (≈ 19.1 µM) | Cn1nnnc1SCC1=C(C(=O)O)N2C(=O)C(NC(=O)C(NC(=O)c3cnc4sccc4c3O)c3ccc(O)cc3)C2SC1 (centres unmarked) [Example 159]
3 | 12.5 µg/mL (≈ 17.5 µM) | 50 µg/mL (≈ 70.2 µM) | 12.5 µg/mL (≈ 17.5 µM) | 12.5 µg/mL (≈ 17.5 µM) | 0.78 µg/mL (≈ 1.09 µM) | 6.25 µg/mL (≈ 8.77 µM) | 1.56 µg/mL (≈ 2.19 µM) | 12.5 µg/mL (≈ 17.5 µM) | CSc1nc(O)c2c(O)c(C(=O)NC(C(=O)NC3C(=O)N4C(C(=O)O)=C(CSc5nnnn5C)CSC34)c3ccc(O)cc3)cnc2n1 (centres unmarked) [Example 160]
4 | 12.5 µg/mL (≈ 17.9 µM) | 50 µg/mL (≈ 71.8 µM) | 25 µg/mL (≈ 35.9 µM) | 6.25 µg/mL (≈ 8.97 µM) | 1.56 µg/mL (≈ 2.24 µM) | 6.25 µg/mL (≈ 8.97 µM) | 0.78 µg/mL (≈ 1.12 µM) | 12.5 µg/mL (≈ 17.9 µM) | CSc1ncc2c(O)c(C(=O)NC(C(=O)NC3C(=O)N4C(C(=O)O)=C(CSc5nnnn5C)CSC34)c3cccc(O)c3)cnc2n1 (centres unmarked) [Example 162]
5 | 12.5 µg/mL (≈ 17 µM) | 50 µg/mL (≈ 68 µM) | 25 µg/mL (≈ 34 µM) | 6.25 µg/mL (≈ 8.51 µM) | 1.56 µg/mL (≈ 2.12 µM) | 6.25 µg/mL (≈ 8.51 µM) | 0.39 µg/mL (≈ 0.531 µM) | 12.5 µg/mL (≈ 17 µM) | Cn1nnnc1SCC1=C(C(=O)O)N2C(=O)C(NC(=O)C(NC(=O)c3cnc4nc(N5CCNCC5)ncc4c3O)c3ccc(O)cc3)C2SC1 (centres unmarked) [Example 163]
6 | 3.13 µg/mL (≈ 4.52 µM) | 12.5 µg/mL (≈ 18 µM) | 3.13 µg/mL (≈ 4.52 µM) | 3.13 µg/mL (≈ 4.52 µM) | 0.78 µg/mL (≈ 1.13 µM) | 1.56 µg/mL (≈ 2.25 µM) | 0.2 µg/mL (≈ 0.289 µM) | 6.25 µg/mL (≈ 9.02 µM) | CN(C)c1ccc2ncc(C(=O)NC(C(=O)NC3C(=O)N4C(C(=O)O)=C(CSc5nnnn5C)CSC34)c3ccc(O)cc3)c(O)c2n1 (centres unmarked) [Example 166]

More lines, now with the values behind:

Row | Compound | MIC [1] | MIC [2] | MIC [3] | MIC [4] | MIC [5] | MIC [6] | MIC [7] | MIC [8]
7 | Cc1nnc(SCC2=C(C(=O)O)N3C(=O)C(NC(=O)C(NC(=O)c4cnc5nc(N(C)C)ncc5c4O)c4ccc(O)c(O)c4)C3SC2)s1 (centres unmarked) [Example 156] | 6.25 µg/mL (≈ 8.61 µM) | 50 µg/mL (≈ 68.9 µM) | 12.5 µg/mL (≈ 17.2 µM) | 6.25 µg/mL (≈ 8.61 µM) | 1.56 µg/mL (≈ 2.15 µM) | 6.25 µg/mL (≈ 8.61 µM) | 0.78 µg/mL (≈ 1.07 µM) | 12.5 µg/mL (≈ 17.2 µM)
8 | COc1cc(C(NC(=O)c2cnc3cccnc3c2O)C(=O)NC2C(=O)N3C(C(=O)O)=C(CSc4nnc(CO)s4)CSC23)ccc1O (centres unmarked) [Example 157] | 3.13 µg/mL (≈ 4.4 µM) | 25 µg/mL (≈ 35.1 µM) | 6.25 µg/mL (≈ 8.78 µM) | 6.25 µg/mL (≈ 8.78 µM) | 1.56 µg/mL (≈ 2.19 µM) | 3.13 µg/mL (≈ 4.4 µM) | 0.2 µg/mL (≈ 0.281 µM) | 12.5 µg/mL (≈ 17.6 µM)
9 | Cc1cc(C(NC(=O)c2cnc3cccnc3c2O)C(=O)NC2C(=O)N3C(C(=O)O)=C(CSc4ccc(O)nn4)CSC23)ccc1O (centres unmarked) [Example 161] | 6.25 µg/mL (≈ 9.25 µM) | 50 µg/mL (≈ 74 µM) | 12.5 µg/mL (≈ 18.5 µM) | 6.25 µg/mL (≈ 9.25 µM) | 0.78 µg/mL (≈ 1.15 µM) | 3.13 µg/mL (≈ 4.63 µM) | 0.39 µg/mL (≈ 0.577 µM) | 12.5 µg/mL (≈ 18.5 µM)
10 | COc1ccc2ncc(C(=O)NC(C(=O)NC3C(=O)N4C(C(=O)O)=C(CSc5nnnn5C)CSC34)c3cccc(O)c3)c(O)c2n1 (centres unmarked) [Example 164] | 3.13 µg/mL (≈ 4.6 µM) | 12.5 µg/mL (≈ 18.4 µM) | 3.13 µg/mL (≈ 4.6 µM) | 3.13 µg/mL (≈ 4.6 µM) | 0.78 µg/mL (≈ 1.15 µM) | 1.56 µg/mL (≈ 2.3 µM) | 0.2 µg/mL (≈ 0.294 µM) | 6.25 µg/mL (≈ 9.2 µM)
11 | COc1ccc2ncc(C(=O)NC(C(=O)NC3C(=O)N4C(C(=O)O)=C(CSc5nnc(CO)s5)CSC34)c3ccc(O)cc3)c(O)c2n1 (centres unmarked) [Example 165] | 3.13 µg/mL (≈ 4.4 µM) | 12.5 µg/mL (≈ 17.6 µM) | 6.25 µg/mL (≈ 8.78 µM) | 3.13 µg/mL (≈ 4.4 µM) | 0.78 µg/mL (≈ 1.1 µM) | 3.13 µg/mL (≈ 4.4 µM) | 0.2 µg/mL (≈ 0.281 µM) | 6.25 µg/mL (≈ 8.78 µM)
12 | Cn1nnnc1SCC1=C(C(=O)O)N2C(=O)C(NC(=O)C(NC(=O)c3cnc4cccnc4c3O)c3ccc(O)c(O)c3)C2SC1 (centres unmarked) [Example 167] | 1.56 µg/mL (≈ 2.34 µM) | 12.5 µg/mL (≈ 18.8 µM) | 3.13 µg/mL (≈ 4.7 µM) | 3.13 µg/mL (≈ 4.7 µM) | 1.56 µg/mL (≈ 2.34 µM) | 1.56 µg/mL (≈ 2.34 µM) | 0.2 µg/mL (≈ 0.3 µM) | 6.25 µg/mL (≈ 9.39 µM)
13 | Cc1ccc2c(O)c(C(=O)NC(C(=O)NC3C(=O)N4C(C(=O)O)=C(CSc5nnc(C)s5)CSC34)c3cccc(O)c3)cnc2n1 (centres unmarked) [Example 168] | 12.5 µg/mL (≈ 18.4 µM) | 50 µg/mL (≈ 73.6 µM) | 25 µg/mL (≈ 36.8 µM) | 12.5 µg/mL (≈ 18.4 µM) | 1.56 µg/mL (≈ 2.29 µM) | 6.25 µg/mL (≈ 9.19 µM) | 0.78 µg/mL (≈ 1.15 µM) | 12.5 µg/mL (≈ 18.4 µM)
